Measurements taken from EPA's ToxValDB 9.5.
≈ marks a conversion by molar mass, not a printed value.

Assays:
Daphnia magna = conditions: for NOEC: chronic/long-term, duration: 21 days, reproduction
Ceriodaphnia dubia = conditions: chronic/long-term; duration: 7 days; reproduction
Canidae = conditions: chronic, oral, Dog Other
Lepomis macrochirus = conditions: acute; duration: 96 hours; mortality
Apis mellifera = conditions: acute, mortality
Anas platyrhynchos = conditions: oral, mortality
Oryctolagus sp. = conditions: no effects
Sus scrofa = conditions: Not specified; for LEL: acute, duration: 3 days, oral, no effects
Capra sp. = conditions: subchronic; no effects
Anabaena flosaquae = conditions: acute; duration: 72 hours; biomass
Bovidae = conditions: oral
Gallus gallus = conditions: for NOAEL: body weight
Plant = conditions: not reported; other
Numida meleagris = conditions: subchronic; duration: 85 days; no effects
Bibionidae = conditions: chronic/long-term
Carassius carassius = conditions: not reported; oral; feed; histopathology: nonneoplastic
Equus caballus = conditions: not reported; neurology
Pelteobagrus fulvidraco = conditions: subchronic; duration: 10 weeks; oral; feed; histopathology: nonneoplastic
Leuciscus idus = conditions: acute; duration: 96 hours; mortality
Macaca mulatta = conditions: acute; oral; neurology
Felidae = conditions: short-term; duration: 10 days; oral; diet; Cat; no effects
Meleagris sp. = conditions: short-term; duration: 3 weeks; oral; feed; F; body weight
Neovison vison = conditions: reproduction developmental; oral; diet; F; reproduction
Anatidae = conditions: short-term; duration: 17 days; oral; feed; M; histopathology: nonneoplastic
Colinus virginianus = conditions: acute, oral, mortality
Phasianus sp. = conditions: acute; oral; unspecified; mortality
Pimephales promelas = conditions: chronic/long-term
Neomysis kadiakensis = conditions: chronic/long-term; duration: 28 days; other
Cyprinodon variegatus = conditions: chronic/long-term; duration: 90 days; development
Danio rerio = conditions: acute; duration: 96 hours; mortality
Tagia sp. = conditions: acute; duration: 14 days; mortality
Folsomia candida = conditions: chronic/long-term; duration: 28 days; reproduction
Hypoaspis aculeifer = conditions: chronic/long-term; duration: 14 days; mortality

CC/C=C\CCOC(C)OCC (stereo not drawn) [Acetaldehyde ethyl cis-3-hexenyl acetal]
LC50 (Pontoscolex corethrurus; acute, mortality): 238 mg/kg | LC50 (Daphnia magna; acute, mortality): 12 µg/mL (≈ 69.7 µM)

CNC(=O)Oc1cccc2c1OC(C)(C)C2 [Carbofuran]
LD50 (Rattus norvegicus; acute, oral, mortality): < 5.6 mg/kg | NOAEL (Rattus norvegicus; reproduction developmental, clinical signs): 0.1 mg/kg-day | NOEC (Ceriodaphnia dubia): 0.00016 mg/L | NOAEL (Canidae; duration: 1 years, clinical signs): 0.1 mg/kg-day | LC50 (Lepomis macrochirus): 0.18 µg/mL (≈ 0.814 µM) | LD50 (Apis mellifera; dermal): 0.0357 µg/piece | LD50 (Anas platyrhynchos; acute, unspecified, M): 0.71 mg/kg | LC50 (Anas platyrhynchos; short-term, feed): 1.6 mg/kg-day

N#CC(c1ccc(Cl)cc1)c1c(Cl)cc(-n2ncc(=O)[nH]c2=O)cc1Cl (configuration not stated) [Diclazuril]
NOEC (Pontoscolex corethrurus; chronic/long-term, reproduction): 50 mg/kg | LEL (Oryctolagus sp.; repeat dose other, F): 6 mg/kg-day | LEL (Oryctolagus sp.; subchronic, duration: 35 days, oral, diet, M/F, New Zealand): 6 mg/kg-day | LEL (Sus scrofa): 10 mg/kg-day | NOEC (repeat dose other, other): > 1 mg/kg-day | LEL (Capra sp.): ≤ 80 mg/kg | NOEC (Anabaena flosaquae): > 10.3 µg/L | LEL (Bovidae; acute, duration: 3 days, no effects): ≤ 5 mg/kg-day | LEL (Gallus gallus; subchronic, duration: 37 days, no effects): 25 mg/kg-day | NOAEL (Mus musculus; chronic, duration: 2 years, M, histopathology: nonneoplastic): 2.9 mg/kg-day | NOEC (Plant): 50.3 mg/kg | LEL (Numida meleagris): ≤ 25 mg/kg | NOEC (Bibionidae; duration: 28 days, seedling emergence): 13.3 mg/kg

CCCC[C@@H](C)[C@@H](OC(=O)C[C@@H](CC(=O)O)C(=O)O)[C@H](C[C@@H](C)C[C@H](O)CCCC[C@@H](O)C[C@H](O)[C@H](C)N)OC(=O)C[C@@H](CC(=O)O)C(=O)O [Fumonisin B1]
NOAEL (Rattus norvegicus; subchronic): 0.2 mg/kg-day | LOAEL (Sus scrofa; subchronic, clinical chemistry): 0.2 mg/kg-day | LOAEL (Carassius carassius): 10 mg/kg | LOAEL (Bovidae; chronic, duration: 253 days, diet, M, histopathology: nonneoplastic): 2.4 mg/kg-day | LOAEL (Gallus gallus; short-term, duration: 21 days, oral, diet, clinical chemistry): 2 mg/kg-day | LOAEL (Equus caballus): 0.2 mg/kg-day | NOAEL (Pelteobagrus fulvidraco): 20 mg/kg

O=C(O)CCCc1c[nH]c2ccccc12 [Indole-3-butyric acid]
LC50 (Leuciscus idus): 210 µg/mL (≈ 1030 µM) | LD50 (Mus musculus; acute, oral, mortality): 1920 mg/kg-day

C/C(=C/C=C/[C@@H](C)C(=O)O)[C@H]1CN[C@H](C(=O)O)[C@H]1CC(=O)O [L-Domoic acid]
LOAEL (Macaca mulatta): 5 mg/kg-day

Nc1nc(N)nc(N)n1 [Melamine]
NOAEL (Rattus norvegicus; subchronic, duration: 13 weeks, oral): 63 mg/kg-day | LEL (Sus scrofa; diet): 400 mg/kg-day | LEL (Oncorhynchus mykiss; acute, duration: 3 days, oral, capsule, no effects): 456 mg/kg-day | LEL (Felidae): 181 mg/kg-day

O=c1cc(O)c1=O [Moniliformin]
NOAEL (Meleagris sp.): 1.6 mg/kg-day | NOAEL (Rattus norvegicus; short-term, duration: 28 days, oral, gavage, M, Sprague-Dawley, clinical signs): 6 mg/kg-day | NOAEL (Gallus gallus; chronic, duration: 14 months, oral, diet): 3.8 mg/kg-day | NOAEL (Gallus gallus; subchronic, duration: 7 weeks, oral, diet): 1.4 mg/kg-day | NOAEL (Neovison vison): 0.92 mg/kg-day | NOAEL (Anatidae): 2.3 mg/kg-day

CNC(=O)CSP(=O)(OC)OC [Omethoate]
LC50 (Rattus norvegicus; acute, duration: 4 hours, inhalation, mortality): 0.287 µg/mL (≈ 1.35 µM) | NOAEL (Rattus norvegicus; acute, oral, clinical signs): 0.2 mg/kg-day | LOAEL (Rattus norvegicus; chronic, duration: 2 years, clinical chemistry): 0.04 mg/kg-day | NOAEL (Rattus norvegicus; reproduction developmental, clinical chemistry): 0.03 mg/kg-day | NOAEL (Canidae; duration: 12 months, gavage, clinical chemistry): 0.025 mg/kg-day | LD50 (Colinus virginianus): 9.9 mg/kg | LD50 (Phasianus sp.): 29 mg/kg

CCOc1cc(Oc2ccc(C(F)(F)F)cc2Cl)ccc1[N+](=O)[O-] [Oxyfluorfen]
NOEC (Daphnia magna): 13 µg/L | NOEC (Pimephales promelas; duration: 34 days, reproduction): 38 µg/L | LC50 (Lepomis macrochirus): 0.21 µg/mL (≈ 0.581 µM) | NOEC (Bibionidae; duration: 28 days, development): 80 µg/L | NOEC (Landoltia sp.; acute, duration: 14 days, frond number): 0.00195 mg/L

Fc1ccc(Oc2ccnc3cc(Cl)cc(Cl)c23)cc1 [Quinoxyfen]
NOEC (Neomysis kadiakensis): 0.00152 mg/L | NOEC (Cyprinodon variegatus): 0.00409 mg/L | NOEC (Bibionidae; duration: 27 days): 128 µg/L | NOEC (Landoltia sp.; chronic/long-term, duration: 14 days): 0.149 mg/L

[Al+3].[Na+].[O-][Si]([O-])([O-])[O-] [Sodium aluminium silicate]
NOEC (Daphnia magna): 10000 µg/L | NOEC (Pimephales promelas; duration: 30 days, growth): 86700 µg/L | LC50 (Danio rerio): > 100 µg/mL

[S] [Sulfur]
LD50 (Rattus norvegicus; acute, oral, mortality): > 1760 mg/kg | NOAEL (Rattus norvegicus; short-term, duration: 28 days, no effects): > 1000 mg/kg-day | NOAEL (Rattus norvegicus; subchronic, duration: 90 days, no effects): 1000 mg/kg-day | LD50 (acute, oral, unspecified, mortality): > 5000 mg/kg | LC50 (Oncorhynchus mykiss; acute, duration: 96 hours, mortality): > 0.063 µg/mL | NOEC (Oncorhynchus mykiss; chronic/long-term, duration: 28 days, growth): > 0.063 mg/L | LD50 (Apis mellifera; oral, unspecified): > 100 µg/piece | LC50 (Tagia sp.): > 1580 mg/kg | LC50 (Colinus virginianus; diet): > 1330 mg/kg-day

C=C(C)[C@H]1CC=C(C)C(=O)C1 [d-Carvone]
LD50 (Rattus norvegicus; acute, oral, mortality): > 2000 mg/kg-day | NOAEL (Rattus norvegicus; reproduction developmental, organ weight): 30 mg/kg-day | LC50 (Danio rerio): 56 µg/mL (≈ 373 µM) | NOEC (Folsomia candida): 25 mg/kg | NOEC (Landoltia sp.; acute, duration: 192 hours, frond number): 4.6 mg/L | NOEC (Hypoaspis aculeifer): ≥ 200 mg/kg
